Test results as given in US20040005997A1, “Methods for identifying compounds for regulating muscle mass of function using amylin receptors” (The Procter & Gamble Company, priority 2002, published 2004).

Experiments:
[1] = test system: mouse sciatic nerve denervation atrophy model; assay: mouse sciatic nerve denervation atrophy model; assay type: in vivo
Method: Legend: A—non-denervated medial gastrocnemius muscle from mice treated with physiological saline (non-atrophied control); B—denervated medial gastrocnemius muscle from mice treated with physiological saline (atrophied control); C—amylin (0.03 mg/kg)+theophylline; D—amylin (0.1 mg/kg)+theophylline; E—amylin (0.3 mg/kg)+theophylline. * —p≦0.05 compared to saline. Following denervation of the right sciatic nerve, male mice were injected subcutaneously in the midscapular region twice daily with amylin, at the doses indicated above or vehicle control (physiological saline) for nine days. […] On day nine, the medial gastrocnemius muscle was removed and weighed to determine the degree of atrophy.
The sciatic nerve denervation atrophy model involves anesthetizing the animal followed by the surgical removal of a short segment of either the right or left sciatic nerve, e.g., in mice the sciatic nerve is isolated approximately at the midpoint along the femur and a 3-5 mm segment is removed. This denervates the lower hind limb musculature resulting in atrophy of these muscles. Typically, innervation to the biceps femoris is left intact to provide satisfactory motion of the knee for virtually normal ambulation. […] The extent of atrophy in the affected muscles is analyzed, for example, by measuring muscle mass, muscle cross-sectional area, myofiber cross-sectional area or contractile protein content.

[2] = test system: mouse glucocorticoid-induced atrophy model; assay: mouse glucocorticoid-induced atrophy model; assay type: in vivo
Method: Legend: A—water only with no dexamethasone included in drinking water (non-atrophied control); B—water+dexamethasone (atrophied control); C—amylin (0.3 mg/kg/d)+theophylline+dexamethasone; D—amylin (1.0 mg/kg/d)+theophylline+dexamethasone; *—p≦0.05 compared to water; #—p≦0.05 compared to water+dexamethasone. Following the addition of the glucocorticoid, dexamethasone, to the drinking water (1.2 mg/kg/d), male mice were injected subcutaneously in the midscapular region twice daily with amylin, at the doses indicated above or vehicle control (physiological saline) for nine days. Amylin was co-administered with twice daily intra-peritoneal dosing of the phosphodiesterase inhibitor theophylline (30 mg/kg). Nine days following the initiation of dosing amylin, the medial gastrocnemius and tibialis anterior muscles were removed and weighed to determine the degree of atrophy.
The glucocorticoid-induced atrophy model involves the administration of a glucocorticoid to the test animal, e.g., 1.2 mg/kg/day of dexamethasone in the drinking water. Typically, in untreated animals, skeletal muscle mass is reduced 30-50% following ten days of dexamethasone administration. Concomitantly with, or following glucocorticoid administration, test compounds are administered e.g., by injection or by continuous infusion to determine their effect on glucocorticoid-induced skeletal muscle atrophy. At various times following glucocorticoid administration, the extent of atrophy in the affected muscles is analyzed as described above for the denervation model.

[3] = test system: leg casting disuse atrophy model; assay: leg casting disuse atrophy model; assay type: in vivo, mouse
Method: Legend: A—physiological saline (control); B—amylin (0.1 mg/kg)+theophylline; C—amylin (0.3 mg/kg)+theophylline; D—amylin (1.0 mg/kg)+theophylline; *—p≦0.05 compared to saline. Following casting of the right hind leg, male mice were injected subcutaneously in the midscapular region twice daily, with amylin or vehicle control (physiological saline) for ten days at the daily delivered dose indicated. Amylin was co-administered with twice daily intra-peritoneal dosing of the phosphodiesterase inhibitor theophylline (30 mg/kg). On day ten, the medial gastrocnemius and tibialis anterior muscles were removed and weighed to determine the degree of atrophy.
The leg casting disuse atrophy model involves casting one hind leg of an animal from the knee down through the foot. Typically, muscle mass is reduced 20-40% after ten days of casting. Following casting, test compounds are administered by injection or by continuous infusion via implantation of an osmotic minipump (e.g., Alzet, Palo Alto, Calif.) to determine their effect on leg casting induced skeletal muscle atrophy. At various times following leg casting, the extent of atrophy in the affected muscles is analyzed as described above for the denervation model.

[4] = test system: human subject in a comatose state; assay: prophylactic treatment of skeletal muscle atrophy in comatose state (Example 13); assay type: in vivo; conditions: human 60 kg, 5 ml of 12 mg/ml amylin stock in 500 ml saline, slow i.v. infusion once each day
Method: A human subject weighing 60 kg is admitted to the hospital in a comatose state. The subject is treated by this method to prevent atrophy of the skeletal muscle of the entire body due to disuse in the comatose state. Specifically, once each day while in the coma, the subject is administered, via slow intravenous infusion, approximately 500 ml of an aqueous solution that is prepared by addition of 5 ml of the following stock solution to 500 ml of sterile saline: […]

## Cn1c(=O)c2[nH]cnc2n(C)c1=O [Theophylline, theophylline]
[1]; denervation model, theophylline alone
  effect on skeletal muscle atrophy, theophylline administered alone: no effect
[2]; glucocorticoid-induced model, theophylline alone
  effect on skeletal muscle atrophy, theophylline administered alone: no effect
[3]; casting disuse model, theophylline alone
  effect on skeletal muscle atrophy, theophylline administered alone: no effect

## amylin (KCNTATCATQRLANFLVHSSNNFGAILSSTNVGSNTY; Islet amyloid polypeptide; UniProt P10997 34-70, looked up) [a 37 amino acid peptide; the ligand/agonist of the amylin receptors]
[1]; male mice, amylin 0.03, 0.1, 0.3 mg/kg s.c. twice daily + theophylline 30 mg/kg i.p. twice daily, nine days, FIG. 1
  denervation-induced atrophy of the medial gastrocnemius muscle (muscle weight): inhibits denervation-induced atrophy
[2]; male mice, dexamethasone 1.2 mg/kg/d in drinking water, amylin 0.3, 1.0 mg/kg/d s.c. twice daily + theophylline 30 mg/kg i.p., nine days, FIG. 2A
  glucocorticoid-induced atrophy of the tibialis anterior muscle (muscle weight): inhibits glucocorticoid-induced muscle atrophy
[2]; male mice, dexamethasone 1.2 mg/kg/d in drinking water, amylin 0.3, 1.0 mg/kg/d s.c. twice daily + theophylline 30 mg/kg i.p., nine days, FIG. 2B
  glucocorticoid-induced atrophy of the medial gastrocnemius muscle (muscle weight): inhibits glucocorticoid-induced muscle atrophy
[3]; male mice, casted right hind leg, amylin 0.1, 0.3, 1.0 mg/kg s.c. twice daily + theophylline 30 mg/kg i.p., ten days, FIG. 3A
  disuse-induced (casting) atrophy of the tibialis anterior muscle (muscle weight): inhibits disuse-induced atrophy
[3]; male mice, casted right hind leg, amylin 0.1, 0.3, 1.0 mg/kg s.c. twice daily + theophylline 30 mg/kg i.p., ten days, FIG. 3B
  disuse-induced (casting) atrophy of the medial gastrocnemius muscle (muscle weight): inhibits disuse-induced atrophy
[3]; male mice, non-casted (normal) leg, amylin 0.1, 0.3, 1.0 mg/kg s.c. twice daily + theophylline 30 mg/kg i.p., ten days, FIG. 3A
  hypertrophy of the tibialis anterior muscle of the non-casted leg: statistically significant hypertrophy
[3]; male mice, non-casted (normal) leg, amylin 0.1, 0.3, 1.0 mg/kg s.c. twice daily + theophylline 30 mg/kg i.p., ten days, FIG. 3B
  hypertrophy of the medial gastrocnemius muscle of the non-casted leg: statistically significant hypertrophy
[4]
  skeletal muscle mass and function: measurable preservation of skeletal muscle mass and function
